Experimental data taken from ChEMBL document CHEMBL1201862, “PubChem BioAssay data set” (2004).
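Test compounds were applied to cells in 96-well plates for 48 hours at 5 doses. Here, GI50 denotes the concentration required for 50% inhibition of growth.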 Active and inactive are the calls of the source. Cut-off read from the data, not from the text of the source: active = GI50 up to about 1.1 µM and inactive = higher.

How the values were obtained:
Test in all cases: inhibition of tumour cell growth, NCI panel, 48 h
EKVX = test system: EKVX
LOX IMVI = test system: LOX IMVI
UO-31 = test system: UO-31
SK-MEL-28 = test system: SK-MEL-28
CAKI-1 = test system: CAKI-1
LXFL 529 = test system: LXFL 529
NCI-H23 = test system: NCI-H23
SR = test system: SR
SK-MEL-2 = test system: SK-MEL-2
HOP-92 = test system: HOP-92
TK-10 = test system: TK-10
SNB-19 = test system: SNB-19
M14 = test system: M14
786-0 = test system: 786-0
IGROV-1 = test system: IGROV-1
SW-620 = test system: SW-620

Measured: GI50

C[n+]1cn(CC(=O)c2ccccc2)c(C(N)=O)c1N
inactive: EKVX > 100 µM | LOX IMVI > 100 µM | UO-31 > 100 µM | SK-MEL-28 > 100 µM | CAKI-1 > 100 µM | LXFL 529 61.7 µM | NCI-H23 > 100 µM | SR > 100 µM | SK-MEL-2 > 100 µM | HOP-92 > 100 µM | TK-10 > 100 µM | SNB-19 > 100 µM | M14 > 100 µM | 786-0 43.7 µM | IGROV-1 > 100 µM | SW-620 11 µM

O/N=C1\C(=C\c2ccc3c(c2)OCCO3)CCCC1C(NO)c1ccc2c(c1)OCCO2 (stereo not drawn)
inactive: EKVX 25.2 µM | LOX IMVI 15.7 µM | UO-31 26.8 µM | SK-MEL-28 18.5 µM | CAKI-1 32.4 µM | LXFL 529 20.2 µM | SR 14.3 µM | HOP-92 23.3 µM | TK-10 24.2 µM | SNB-19 38.7 µM | M14 17.7 µM | 786-0 32.1 µM | IGROV-1 36.1 µM | SW-620 32.2 µM

O=c1[nH]c(=O)n(C2CC(O)C(CO)O2)cc1C#Cc1c(F)c(F)c(F)c(F)c1F (stereo not drawn)
inactive: EKVX > 100 µM | LOX IMVI > 100 µM | UO-31 > 100 µM | SK-MEL-28 > 100 µM | CAKI-1 > 100 µM | LXFL 529 > 100 µM | NCI-H23 > 100 µM | SR > 100 µM | SK-MEL-2 > 100 µM | SNB-19 > 100 µM | M14 > 100 µM | 786-0 > 100 µM | SW-620 > 100 µM

Cc1ccc(C)c(N2C(=O)C(=O)C(c3nc4ccccc4s3)/C(=N/N)C2=O)c1 (stereo not drawn)
inactive: EKVX > 100 µM | LOX IMVI > 100 µM | UO-31 > 100 µM | SK-MEL-28 > 100 µM | CAKI-1 > 100 µM | LXFL 529 > 100 µM | NCI-H23 > 80.5 µM | SR > 100 µM | SK-MEL-2 > 100 µM | HOP-92 > 100 µM | TK-10 > 100 µM | SNB-19 > 100 µM | M14 > 100 µM | 786-0 > 100 µM | IGROV-1 > 100 µM | SW-620 > 100 µM

O=C(O)Cc1ccc2c(c1O)C(=O)c1c(ccc(CC(=O)O)c1O)C2=O
inactive: EKVX > 100 µM | LOX IMVI > 100 µM | SK-MEL-28 > 100 µM | CAKI-1 > 100 µM | LXFL 529 > 100 µM | NCI-H23 > 100 µM | SR > 100 µM | SK-MEL-2 > 100 µM | HOP-92 > 100 µM | TK-10 > 100 µM | SNB-19 > 100 µM | M14 > 100 µM | 786-0 > 100 µM | IGROV-1 > 100 µM | SW-620 > 100 µM

COC(=O)C12C3C=CC(O3)C1C1C=CC2O1 (stereo not drawn)
inactive: EKVX > 100 µM | UO-31 > 100 µM | SK-MEL-28 > 100 µM | LXFL 529 > 100 µM | NCI-H23 > 100 µM | SR > 100 µM | SK-MEL-2 > 100 µM | HOP-92 > 100 µM | TK-10 > 100 µM | SNB-19 > 100 µM | M14 > 100 µM | 786-0 > 100 µM | IGROV-1 > 100 µM | SW-620 > 100 µM

COC(=O)/C(=N/O)C(C(=O)C=C(C)C)C(=O)C(=O)Nc1nc2ccc([N+](=O)[O-])cc2s1 (stereo not drawn)
inactive: EKVX 16.7 µM | LOX IMVI 22.9 µM | UO-31 26.8 µM | SK-MEL-28 58.7 µM | CAKI-1 24.2 µM | LXFL 529 25.6 µM | NCI-H23 25.2 µM | SR 38.1 µM | SK-MEL-2 25.8 µM | HOP-92 13.1 µM | TK-10 27.3 µM | SNB-19 67.9 µM | M14 54.7 µM | 786-0 37.3 µM | IGROV-1 36.9 µM | SW-620 33.8 µM

Cc1c(OCCCOc2ccc3c(=O)cc(-c4ccccc4)oc3c2C)ccc2c(=O)cc(-c3ccccc3)oc12
inactive: EKVX > 100 µM | LOX IMVI > 100 µM | UO-31 > 100 µM | SK-MEL-28 > 100 µM | CAKI-1 > 100 µM | LXFL 529 > 100 µM | NCI-H23 > 100 µM | SR 44.2 µM | SK-MEL-2 > 100 µM | HOP-92 > 100 µM | TK-10 > 100 µM | SNB-19 > 100 µM | M14 > 100 µM | 786-0 > 100 µM | IGROV-1 > 100 µM | SW-620 > 100 µM

Cc1ccccc1C(=O)c1cc(O)ccc1O
inactive: EKVX > 100 µM | UO-31 > 100 µM | CAKI-1 > 100 µM | LXFL 529 > 100 µM | NCI-H23 65 µM | SR 78 µM | SK-MEL-2 34.6 µM | HOP-92 > 100 µM | TK-10 > 100 µM | SNB-19 > 100 µM | M14 > 100 µM | 786-0 > 100 µM | IGROV-1 99.5 µM | SW-620 37.1 µM

Cn1cc2ccccc2c1-c1nc(F)nc(F)n1
inactive: EKVX > 100 µM | LOX IMVI > 100 µM | UO-31 > 100 µM | SK-MEL-28 > 100 µM | CAKI-1 > 100 µM | LXFL 529 > 100 µM | NCI-H23 > 100 µM | SR 41.6 µM | SK-MEL-2 > 100 µM | HOP-92 > 100 µM | TK-10 > 100 µM | SNB-19 > 100 µM | M14 > 100 µM | 786-0 > 100 µM | IGROV-1 > 100 µM | SW-620 > 100 µM

O=C(C#Cc1ccccc1)N1c2ccccc2CC1c1c[nH]c2ccccc12 (stereo not drawn)
inactive: EKVX 15.4 µM | LOX IMVI 6.73 µM | UO-31 23.1 µM | SK-MEL-28 14.9 µM | CAKI-1 11.4 µM | LXFL 529 12.3 µM | NCI-H23 12.6 µM | SR 12.3 µM | SK-MEL-2 12.5 µM | HOP-92 15.3 µM | TK-10 21.4 µM | SNB-19 30.3 µM | M14 15 µM | 786-0 16.2 µM | IGROV-1 3.73 µM | SW-620 15.3 µM

COc1ccc2c3c([nH]c(=O)c2c1C(=O)O)-c1ccccc1CC3
inactive: EKVX 49.7 µM | LOX IMVI > 100 µM | UO-31 > 100 µM | SK-MEL-28 > 100 µM | CAKI-1 > 100 µM | LXFL 529 > 100 µM | NCI-H23 > 100 µM | SR > 100 µM | SK-MEL-2 > 100 µM | HOP-92 > 100 µM | TK-10 > 100 µM | SNB-19 > 100 µM | M14 > 100 µM | 786-0 > 100 µM | IGROV-1 > 100 µM | SW-620 > 100 µM

OCC1CC2CC1C1(C2)OCCO1 (stereo not drawn)
inactive: EKVX > 100 µM | LOX IMVI > 100 µM | UO-31 > 100 µM | SK-MEL-28 > 100 µM | CAKI-1 > 100 µM | LXFL 529 > 100 µM | NCI-H23 > 100 µM | SR > 100 µM | SK-MEL-2 > 100 µM | HOP-92 > 100 µM | TK-10 > 100 µM | SNB-19 > 100 µM | M14 > 100 µM | 786-0 > 100 µM | IGROV-1 > 100 µM | SW-620 > 100 µM
